Measured values taken from patent publication US10004716B2, “Therapeutic/ preventive agent containing coumarin derivative as active ingredient” (NIPPON ZOKI PHARMACEUTICAL CO., LTD., priority 2014, dated 2018).

What was measured:
IL-6 gene expression = test: Suppression of IL-1α-induced gene expression of inflammation-related factors in bovine cartilage pieces (real time PCR): IL-6; type: cell-based; details: 20 μmol/L test substance 2 hours, then IL-1α 3 ng/mL 8 hours, n = 3
Experimental: Each 6 to 8 cartilage pieces (diameter: 4 mm) of bovine metacarpophalangeal joint were placed into each well of a 24-well plate and incubated for one night in 1 mL of a basal medium in a CO2 incubator which was set at 37° C. and 5% by volume of CO2. After that, they were incubated for 2 hours in a basal medium containing 20 μmol/L of a test substance and, after addition of human recombinant IL-1α (3 ng/mL) thereto, they were incubated for 8 hours more. After completion of the incubation, the culture medium was discarded, an RNA stabilizer was added to the cartilage pieces, the mixture was incubated at 4° C. for one night and the cartilage pieces were finely cut using scissors, placed into micro-tubes and stored with freezing until the extraction of RNA therefrom.
The cartilage pieces placed in the micro-tubes were pulverized using Tissue Lyser (QIAGEN) (at 25 Hz for 5 minutes; for two times), 1 mL of QIAzol Lysis Reagent (QIAGEN) was added thereto to suspend, 200 μL of chloroform was added thereto followed by mixing and the mixture was centrifuged (1500 rpm at 4° C.) to recover the supernatant liquid. Total RNA was extracted and purified using QIACube (QIAGEN) and RNeasy Micro Kit (QIAGEN). cDNA was prepared from the total RNA using Omniscript RT Kit (QIAGEN) and Oligo(dT)12-18 Primer (Invitrogen).
The cDNA synthesized from the total RNA extracted in the above (2) was used to measure the gene expression level of the inflammation-related factors [IL-1β, IL-6, COX-2 and iNOS (inducible nitric oxide synthase)] by a conventional real time PCR method using a fluorescent dye SYBR GREEN I (Roche Diagnostics) by a Light Cycler LC 480 (the same). A calibration curve was prepared by dilution of a PCR product quantified by a DNA quantitation kit (PicoGreen dsDNA Quantitiation Kit (Molecular Probes)) to an extent of 10^2˜10^7 copies/μL. From each of the resulting measured data, copy numbers per 10000 copies of glyceroaldehyde-3-phosphate dehydrogenase (GAPDH) which was an internal standard were calculated.

NF-κB = test: Suppressive action to NF-κB activation (luciferase reporter, HEK293T cells, TNF-α); type: cell-based, human; details: HEK293T cells with NF-κB reporter; test substance 25 μml/mL 1 hour, then TNF-α 10 ng/mL 5 hours; stimulated TNF-α = 100
Experimental: A preparation solution containing pGL4.32 [luc2P/NF-κB-RE/Hygrol] (Promega) which is an NF-κB reporter vector, pGL4.74 [hRluc/TK] (Promega) which is a control vector and Lipofectamine LTX (Life Technologies) which is a gene transfer agent was added to human embryo kidney cells (HEK293T cells) sown onto a […] whereupon there were prepared the cells which transiently express a reporter protein.
After 24 hours from the gene transfer, transient expression cells were peeled off by treating with trypsin, sown on a poly-lysine coated white 96-well plate and incubated for one night. The test substance was added to as to make its final concentration 25 μml/mL and, after pre-incubating for 1 hour, TNF-α was added thereto so as to make its final concentration 10 ng/mL followed by incubating for 5 hours more. The cells were dissolved and the activities of a firefly luciferase and a renilla luciferase were measured. Rate of the luminescent intensity by addition of each drug to the luminescent intensity by stimulation with TNF-α were calculated.

[1] = tested on: rats suffering from degenerative intervertebral disk induced by nicotine; test: Duration of walking time (rotor rod) in rats with degenerative intervertebral disk induced by nicotine; type: in vivo; details: SD male rats, after 48 days from initiation of exposure to nicotine, 300 seconds maximum, per os once daily, n = 8, normal control 274.1, diseased control 147.7
Experimental: After 16 days from the purchase, SD male rats were organized into normal control group and nicotine group in terms of body weight, 50% reaction threshold value (measuring method will be mentioned later) and duration of walking time and, after 17 days from the purchase, exposure to nicotine was started for a nicotine group. Nicotine was prepared into 344.8 mg/mL using a physiological saline solution, filled into an osmotic pressure pump and retained under the skin of waist of rats. After 21 days from the retaining, an osmotic pressure pump into which a freshly-prepared nicotine solution was filled was retained under the skin of rats of five groups except the normal control group. Nicotine was prepared into […] using a physiological saline solution, filled into an osmotic pressure pump and retained under the skin of waist of the SD male rats.
After 13 days from exposure to nicotine, measurement of 50% reaction threshold value, duration of walking time and body weight were measured and a group organization was done into 6 groups of normal control group, diseased control group, compound 57-administered group, compound 58-administered group, compound 60-administered group and compound 68-administered group.
A test substance was suspended using 0.5 w/v % CMC and, together with stirring, 10 mL/kg of the suspension was repeatedly administered per os once daily after 14 to 52 or 53 days from the initiation of exposure to nicotine using an oral sonde for rats. To the normal control group and the diseased control group, 0.5 w/v % CMC was repeatedly administered per os in the same administration schedule and administration method.
Before the exposure to nicotine and after 48 days from the initiation of the exposure to nicotine, duration of waling time of rats was measured using a rotor rod for both rats and mice. A rotating speed was adjusted in such a manner that, when rotation was started in constant acceleration from the state where a rotor stopped, it reached 15 rotations per minute after 300 seconds. A rat was placed on a rotor which was in a stopped state, then the rotor was rotated, the time until the rat dropped was measured (300 seconds in maximum) and a mean value of three runs was determined.

CTGF gene expression = test: Evaluation II: TGF-β-induced gene expression of fibrosis-related factors in NHLF cells: CTGF; type: cell-based, human; details: 30 μM test substance, 200 μg/mL pirfenidone, 30 μM DEX, 1.0 μM TPCA-1 or 10 μM FP 2 hours, then TGF-β 0.5 ng/mL 4 hours, n = 4
Experimental: (§1) NHLF cells were sown so as to make their amount 5×10^4 cells/well to each well of a 12-well plate and incubated to an extent of 80% confluent in a medium where fibroblast growth medium 2 supplement mix (FGM-2 SingleQuots, Lonza) was added to a fibroblast basal medium (FBM, Lonza). After that, incubation was conducted for 2 hours in a DMEM medium containing 30 μM of a test substance, 200 μg/mL of pirfenidone, 30 μM of dexamethasone (DEX), 1.0 μM of TPCA-1 or 10 μM of fluticasone propionate (FP) and, after TGF-β was added thereto so as to make its final concentration 0.5 ng/mL, incubation was carried out for 4 hours more.
(§2) With regard to the extraction of RNA from NHLF cells, the synthesis of cDNA from RNA and the action of the test substance to gene expression of fibrosis-related factors [CFGF, TGF-β1, fibronectin and Col 1], the tests were carried out in the same manners as in (2) and (3) of the above Test Example 3.

TGF-β1 gene expression = test: Evaluation II: TGF-β-induced gene expression of fibrosis-related factors in NHLF cells: TGF-β1; type: cell-based, human; details: 30 μM test substance, 200 μg/mL pirfenidone, 30 μM DEX, 1.0 μM TPCA-1 or 10 μM FP 2 hours, then TGF-β 0.5 ng/mL 4 hours, n = 4
Experimental: as §1, §2

[2] = tested on: fibronectin gene expression; test: Evaluation II: TGF-β-induced gene expression of fibrosis-related factors in NHLF cells: fibronectin; type: cell-based, human; details: 30 μM test substance, 200 μg/mL pirfenidone, 30 μM DEX, 1.0 μM TPCA-1 or 10 μM FP 2 hours, then TGF-β 0.5 ng/mL 4 hours, n = 4
Experimental: as §1, §2

Col 1 gene expression = test: Evaluation II: TGF-β-induced gene expression of fibrosis-related factors in NHLF cells: Col 1; type: cell-based, human; details: 30 μM test substance, 200 μg/mL pirfenidone, 30 μM DEX, 1.0 μM TPCA-1 or 10 μM FP 2 hours, then TGF-β 0.5 ng/mL 4 hours, n = 4
Experimental: as §1, §2

Structure (SMILES) | Copy Numbers per 10000 Copies of GAPDH IL-6 (IL-6 gene expression) | Luminescent Intensity to Stimulated TNF-α (%) (NF-κB) | Duration of Walking Time [1] [s] | Copy Numbers per 10000 Copies of GAPDH CTGF (CTGF gene expression) | Copy Numbers per 10000 Copies of GAPDH TGF-β1 (TGF-β1 gene expression) | Copy Numbers per 10000 Copies of GAPDH Fibronectin [2] | Copy Numbers per 10000 Copies of GAPDH Col 1 (Col 1 gene expression)
O=c1oc2c(OS(=O)(=O)c3ccc(C(F)(F)F)cc3)cccc2cc1NS(=O)(=O)c1cccc(C(F)(F)F)c1 [Compound 57, 2-Oxo-3-[[3-(trifluoromethyl)phenyl]sulfonylamino]-chromen-8-yl 4-(trifluoromethyl)benzenesulfonate] | 7749.8 copies per 10000 copies of GAP | 7.5 | 187.3 |  |  |  | 
O=c1oc2c(OS(=O)(=O)c3ccc(C(F)(F)F)cc3)cccc2cc1NS(=O)(=O)c1cccc(Br)c1 [Compound 58, 3-[(3-Bromophenyl)sulfonylamino]-2-oxochromen-8-yl 4-(trifluoromethyl)benzenesulfonate] | 9346.3 copies per 10000 copies of GAP | 14.5 | 210.9 | 115.8 copies per 10000 copies of GAP | 704.5 copies per 10000 copies of GAP | 1827.5 copies per 10000 copies of GAP | 525.6 copies per 10000 copies of GAP
O=c1oc2c(OS(=O)(=O)c3cccc(Br)c3)cccc2cc1NS(=O)(=O)c1cccc(C(F)(F)F)c1 [Compound 60, 2-Oxo-3-[[3-(trifluoromethyl)phenyl]sulfonylamino]-chromen-8-yl 3-bromobenzenesulfonate] | 9277.4 copies per 10000 copies of GAP | 15.7 | 208.4 | 119.0 copies per 10000 copies of GAP | 707.1 copies per 10000 copies of GAP | 1446.2 copies per 10000 copies of GAP | 650.6 copies per 10000 copies of GAP
O=c1oc2c(OS(=O)(=O)c3cccc(C(F)(F)F)c3)cccc2cc1NS(=O)(=O)c1ccc(C(F)(F)F)cc1 [Compound 68, 2-Oxo-3-[[4-(trifluoromethyl)phenyl]sulfonylamino]-chromen-8-yl 3-(trifluoromethyl)benzenesulfonate] | 16195.2 copies per 10000 copies of GAP | 16.1 | 189.2 |  |  |  | 
